Test results taken from patent US20260207623A1, “USE OF ESTETROL IN HEPATICALLY IMPAIRED PATIENTS” (ESTETRA SRL, priority 2022, published 2026).
Values joined by “and” are separate entries in the source; they are usually repeats but may differ in a detail not shown here. Equal values may be shown once. “Also recorded” adds a separate entry of the source.

Tested on: female subjects with normal hepatic function, mild, moderate or severe hepatic impairment
Test: Safety and tolerability (TEAEs, clinical laboratory, vital signs, physical examination) after a single oral dose of 20 mg E4 monohydrate in the hepatic impairment study
Format: in vivo, human
Procedure: This was a Phase 1, multi-centre, open-label, PK, and safety study of a single oral dose of 20 mg E4 monohydrate in female subjects with normal hepatic function (Group 1), mild hepatic impairment (Group 2), moderate hepatic impairment (Group 3), and severe hepatic impairment (Group 4), as defined using the Child-Pugh classification at Screening.
Safety and tolerability assessments consisted of treatment-emergent AEs (TEAEs), clinical laboratory, vital signs, physical examination, and gynecological examination. Assessments were performed in accordance with Table 2 and Table 3 in Section 2.5.1.
AEs/TEAEs were recorded after signing of the ICF until completion of the follow up visit. Any clinically significant observations in results of clinical laboratory, vital signs, or physical examinations were recorded as AEs.
A TEAE is defined as any event not present prior to administration of the study drug or any event already present that worsens in either severity or frequency following exposure to the study drug.
The below listed tests were to be performed by the local laboratories at time points indicated in the Schedule of Assessments (Table 2).
Systolic and diastolic blood pressure and pulse were recorded after the subject had been resting for at least 5 minutes in the supine position at time points indicated in the Schedule of Assessments (Table 2). These assessments were made using an automated device. Body temperature and respiratory rate were measured subsequently.
A complete physical examination consisting of a review of all body systems was performed at time points indicated in the Schedule of Assessments (Table 2). A symptom-directed physical examination could be conducted at any time per Investigator's discretion.
2.6.2.2 Evaluation of Safety and Tolerability Safety and tolerability were assessed through TEAEs, clinical laboratory, vital signs, and physical examination findings, and any other parameter that was relevant for safety assessment.
A listing of all individual AEs is provided. Summary tables of TEAEs are presented by system organ class (SOC) based on the MedDRA terminology list (preferred terms): a table containing the number of subjects experiencing AEs by hepatic function, a table containing the number of subjects experiencing SAEs by hepatic function (if applicable), a table by hepatic function and relationship, and a table by hepatic function and severity.

[1] = Mild (N = 8), single oral dose 20 mg E4
[2] = Moderate (N = 8), single oral dose 20 mg E4
[3] = Normal (N = 8), single oral dose 20 mg E4
[4] = Severe (N = 8), single oral dose 20 mg E4
[5] = Total (N = 32), single oral dose 20 mg E4
[6] = all 32 subjects, single oral dose 20 mg E4
[7] = moderate hepatic impairment group

## C[C@]12CC[C@@H]3c4ccc(O)cc4CC[C@H]3[C@@H]1[C@@H](O)[C@@H](O)[C@@H]2O [E4, 1,3,5 (10)-estratrien-3,15alpha, 16alpha, 17beta-tetrol]
[1]
  Subjects by maximum relationship to study drug: Not related: 2 (25.0) n (%)
  Subjects by maximum relationship to study drug: Related: 0 n (%)
  Subjects with TEAEs by maximum severity: Mild: 2 (25.0) n (%)
  Subjects with TEAEs by maximum severity: Moderate: 0 n (%)
  Subjects with at least one AE: 2 (25.0) n (%)
  Subjects with at least one SAE: 0 n (%)
  Subjects with at least one TEAE: 2 n (%) and 2 (25.0) n (%)
  Subjects with at least one TEAE leading to study drug discontinuation: 0 n (%)
[2]
  Subjects by maximum relationship to study drug: Not related: 3 (37.5) n (%)
  Subjects by maximum relationship to study drug: Related: 1 (12.5) n (%)
  Subjects with TEAEs by maximum severity: Mild: 3 (37.5) n (%)
  Subjects with TEAEs by maximum severity: Moderate: 1 (12.5) n (%)
  Subjects with at least one AE: 4 (50.0) n (%)
  Subjects with at least one SAE: 0 n (%)
  Subjects with at least one TEAE: 4 n (%) and 4 (50.0) n (%)
  Subjects with at least one TEAE leading to study drug discontinuation: 0 n (%)
[3]
  Subjects by maximum relationship to study drug: Not related: 2 (25.0) n (%)
  Subjects by maximum relationship to study drug: Related: 0 n (%)
  Subjects with TEAEs by maximum severity: Mild: 0 n (%)
  Subjects with TEAEs by maximum severity: Moderate: 2 (25.0) n (%)
  Subjects with at least one AE: 2 (25.0) n (%)
  Subjects with at least one SAE: 0 n (%)
  Subjects with at least one TEAE: 2 n (%) and 2 (25.0) n (%)
  Subjects with at least one TEAE leading to study drug discontinuation: 0 n (%)
[4]
  Subjects by maximum relationship to study drug: Not related: 1 (12.5) n (%)
  Subjects by maximum relationship to study drug: Related: 0 n (%)
  Subjects with TEAEs by maximum severity: Mild: 1 (12.5) n (%)
  Subjects with TEAEs by maximum severity: Moderate: 0 n (%)
  Subjects with at least one AE: 1 (12.5) n (%)
  Subjects with at least one SAE: 0 n (%)
  Subjects with at least one TEAE: 1 n (%) and 1 (12.5) n (%)
  Subjects with at least one TEAE leading to study drug discontinuation: 0 n (%)
[5]
  Subjects by maximum relationship to study drug: Related: 1 n (%) and 1 (3.1) n (%)
  Subjects with TEAEs by maximum severity: Moderate: 3 n (%) and 3 (9.4) n (%)
  Subjects with at least one AE: 9 (28.1) n (%)
  Subjects with at least one SAE: 0 n (%)
  Subjects with at least one TEAE: 9 n (%) and 9 (28.1) n (%)
  Subjects with at least one TEAE leading to study drug discontinuation: 0 n (%)
[6]
  subjects reporting TEAE back pain: 2 subjects
  subjects reporting TEAE diarrhea: 3 subjects
  subjects reporting TEAE headache: 2 subjects
  subjects reporting TEAE hypertension: 2 subjects
All hepatic function groups
  laboratory values, changes and shifts from baseline (hematology, clinical chemistry): did not show deviations or trends which would raise safety concerns
All subjects
  number of TEAEs considered of mild intensity: Eleven
  number of TEAEs considered of moderate intensity: 4 TEAEs
Changes from baseline
  blood pressure, pulse rate, respiratory rate, body temperature: showed no trends or clinically relevant changes
diarrhea, mild intensity, 1 subject in the moderate group
  number of TEAEs considered related to the study drug: 1 TEAE
Mild hepatic impairment group
  subjects with TEAE hypertension: 2 subjects
[7]
  subjects reporting TEAE diarrhea: 2 subjects
  subjects reporting TEAE headache: 2 subjects
Normal hepatic function group
  subjects reporting TEAE back pain: 1 subjects
  subjects reporting TEAE diarrhea: 1 subjects
Overall conclusion
  vital signs, laboratory values, physical examination: unremarkable
Severe hepatic impairment group
  subjects reporting TEAE back pain: 1 subjects
Whole study
  deaths, SAEs, other significant AEs: no subjects with SAEs; also recorded: No deaths, SAEs, or other significant AEs occurred
